Assay results taken from US20250122225A1, “MASP-2 INHIBITORS AND METHODS OF USE” (Omeros Corporation, priority 2023, published 2025).
Where a name gives a salt, the structure may show the parent alone.

What was measured:
Assay type in all cases: biochemical
MASP-2 (CCP1-CCP2-SP) = biological target: T1, MASP-2 (CCP1-CCP2-SP) (Homo sapiens, UniProt O00187); assay: Enzymatic assay for MASP-2 inhibitory activity (fluorogenic substrate)
T1 construct: 15 μL of Enzyme MASP-2 (CCP1-CCP2-SP) in Assay Buffer
Summary of the method: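 Fluorescence was normalized between no-enzyme and DMSO-only controls to derive % activity, with IC50 taken as equivalent to Ki except for tight-binding inhibitors. Reactions ran 20 min at room temperature in HEPES pH 7.4/NaCl/Tween 20 buffer, using the C2-derived fluorogenic substrate, before acetic acid stop.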

human α-thrombin = biological target: T2, human α-thrombin (Homo sapiens, UniProt P00734); assay: Enzymatic assay for thrombin (fluorogenic peptide substrate Boc-VPR-AMC)
T2 construct: enzyme (human α-thrombin (BioPharm® Lab.)) in assay buffer; purchased BioPharm® Lab
Summary of the method: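 Assay conditions kept the reaction linear in time, enzyme and substrate, so IC50 approximated Ki apart from tight- or slow-binding cases. Boc-VPR-AMC cleavage by human α-thrombin proceeded 20 min at room temperature in Hepes pH 7.4/NaCl/Tween 20 buffer, then was acid-quenched and read by fluorescence.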

[1] = system: Lectin Pathway Activation in human serum; assay: Lectin Pathway Activation (LPA) assay in human serum, mannan-coated ELISA plate, C4c detection; conditions: 1% human serum, read-out: LPA Functional Activity (IC50)
Procedure: Lectin Pathway Activation (LPA) Assay in Human Serum Treated with Compounds
A microtiter ELISA plate was coated with mannan (1 mg/ml) from Saccharomyces cerevisiae (Sigma-Aldrich®, M7504) overnight at 4° C. in coating buffer [33.3 mM Na2CO3, 166.67 mM NaHCO3]. The plate was blocked with 5% bovine serum albumin (BSA) (Sigma-Aldrich®, A3294) in 1×PBST [Phosphate Buffered Saline Solution (1.06 mM KH2PO4, 155.2 mM NaCl, 2.97 mM Na2HPO4^−·7H2O, pH 7.4), 0.05% Tween-20] shaking for 2 hours at room temperature. 1% human serum was incubated with serial dilutions of small compounds in 1× LPA+ Buffer [20 mM Hepes, pH 7.4, 140 mM NaCl, 2 mM MgCl2 (6H2O)] and incubated for 5 minutes at room temperature. 40 μL of this mixture was then added to the plate, and the plate was incubated at room temperature for 55 mins. Next, the reaction was stopped by adding 20 μL of EDTA Stop Solution [20 mM Hepes, pH7.4, 140 mM NaCl, 150 mM EDTA] to the plate. The plate was then washed 10× in wash buffer 1×PBST; 40 μL of Rabbit Anti Human C4c Antibody [Dako®, Q0369] diluted 1:20000 in wash buffer was added; and the plate was incubated shaking at room temperature for 30 minutes. The plate was washed [5× times]; 40 μL of Goat Anti-rabbit Antibody-HRP Conjugate [Southern Biotech®, 4050-05] diluted 1:10000 in wash buffer was added; and the plate was incubated shaking at room temperature for 30 minutes. After that, the plate was washed five times; 40 µL/well of Amplex® UltraRed Substrate Solution [1× LPA Buffer, 10 mM Amplex® UltraRed Stock Solution [Thermo Fisher Sci.®, A36006], 3% stabilized hydrogen peroxide [Sigma Aldrich®, 216763] was added; the plate was incubated at room temperature for 16 minutes; the reaction was stopped by adding 8 µL/well of Amplex® UltraRed Stop Solution [Thermo Fisher Sci.®, A33855] in 100% EtOH. Finally, the plate was read for fluorescence at Ex: 550 nm, Em: 580 nm on the i3x Microplate Reader.

T1 sequence (O00187 445-686 limits assumed): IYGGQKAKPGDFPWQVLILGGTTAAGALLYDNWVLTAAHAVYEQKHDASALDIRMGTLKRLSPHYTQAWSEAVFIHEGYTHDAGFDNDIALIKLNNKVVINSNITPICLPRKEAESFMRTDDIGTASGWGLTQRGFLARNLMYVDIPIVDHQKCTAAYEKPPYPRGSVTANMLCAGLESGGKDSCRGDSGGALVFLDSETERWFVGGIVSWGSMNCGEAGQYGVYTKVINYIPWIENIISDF
T1 sequence (O00187 287-444 partner limits assumed): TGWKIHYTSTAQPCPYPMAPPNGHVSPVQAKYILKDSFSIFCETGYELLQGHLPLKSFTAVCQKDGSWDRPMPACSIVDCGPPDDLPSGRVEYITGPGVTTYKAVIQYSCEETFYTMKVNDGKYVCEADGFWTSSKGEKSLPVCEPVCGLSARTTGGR

Row | SMILES | Ki (MASP-2 (CCP1-CCP2-SP)) | Ki (human α-thrombin) | IC50 [1]
1 | CC[C@H]1C[C@@H](C(=O)NCc2cc3cnccc3[nH]2)n2c1cnc(NCc1cc(C)cc(C)c1)c2=O [Compound 155, (6S,8S)-N-((1H-pyrrolo[3,2-c]pyridin-2-yl)methyl)-3-((3,5-dimethylbenzyl)amino)-8-ethyl-4-oxo-4,6,7,8-tetrahydropyrrolo[1,2-a]pyrazine-6-carboxamide] | < 500 nM | < 500 nM | < 50 nM
2 | COc1cc(C)cc(CNc2ncc3n(c2=O)[C@H](C(=O)N[C@H](C)c2ccc(N)nc2)CC3)c1 [Compound 194, (S)-N-((R)-1-(6-aminopyridin-3-yl)ethyl)-3-((3-methoxy-5-methylbenzyl)amino)-4-oxo-4,6,7,8-tetrahydropyrrolo[1,2-a]pyrazine-6-carboxamide trifluoroacetate] | < 500 nM | 2500 to 10000 nM | < 50 nM
3 | Cc1nc(N)ccc1CNC(=O)[C@@H]1CCc2c(Cl)nc(NCc3cccc(-c4ccccc4)c3)c(=O)n21 [Compound 221, (S)-3-(([1,1′-biphenyl]-3-ylmethyl)amino)-N-((6-amino-2-methylpyridin-3-yl)methyl)-1-chloro-4-oxo-4,6,7,8-tetrahydropyrrolo[1,2-a]pyrazine-6-carboxamide trifluoroacetate] | < 500 nM | 2500 to 10000 nM | < 50 nM
4 | Cc1cc(F)cc(CNc2ncc3n(c2=O)[C@H](C(=O)NCc2cc4cnc(C)cc4[nH]2)CC3)c1 [Compound 71, (S)-3-((3-fluoro-5-methylbenzyl)amino)-N-((6-methyl-1H-pyrrolo[3,2-c]pyridin-2-yl)methyl)-4-oxo-4,6,7,8-tetrahydropyrrolo[1,2-a]pyrazine-6-carboxamide] | < 500 nM | 10000 to 25000 nM | < 50 nM
5 | CC1(C)C[C@@H](C(=O)NCc2cc3cnccc3[nH]2)n2c1cnc(NCc1ccccc1)c2=O [Compound 228, trifluoroacetate] | < 500 nM | 2500 to 10000 nM | < 50 nM
6 | Cc1ccc(C(F)(F)F)cc1CNc1ncc2n(c1=O)[C@H](C(=O)N[C@H](C)c1ccc(N)nc1)CC2 [Compound 197, (S)-N-((R)-1-(6-aminopyridin-3-yl)ethyl)-3-((2-methyl-5-(trifluoromethyl)benzyl)amino)-4-oxo-4,6,7,8-tetrahydropyrrolo[1,2-a]pyrazine-6-carboxamide trifluoroacetate] | < 500 nM | > 25000 nM | < 50 nM
7 | COc1cc(C)cc(CNc2ncc3n(c2=O)[C@H](C(=O)NCc2cc4cnccc4[nH]2)CC3)c1 [Compound 48, (S)-N-((1H-pyrrolo[3,2-c]pyridin-2-yl)methyl)-3-((3-methoxy-5-methylbenzyl)amino)-4-oxo-4,6,7,8-tetrahydropyrrolo[1,2-a]pyrazine-6-carboxamide] | < 500 nM | < 500 nM | < 50 nM
8 | O=C(NCc1cc2cnccc2[nH]1)[C@@H]1CCc2c(Cl)nc(NCc3cnccn3)c(=O)n21 [Compound 239] | < 500 nM | > 25000 nM | 50 to 500 nM
9 | [2H]C([2H])([2H])c1nc(N)ccc1CNC(=O)[C@@H]1CCc2cnc(NCc3cc(C)cc(OC)c3)c(=O)n21 [Compound 226, (S)—N-((6-amino-2-(methyl-d3)pyridin-3-yl)methyl)-3-((3-methoxy-5-methylbenzyl)amino)-4-oxo-4,6,7,8-tetrahydropyrrolo[1,2-a]pyrazine-6-carboxamide] | < 500 nM | < 500 nM | < 50 nM
10 | O=C(NCc1cc2c(s1)CNC2)[C@@H]1CCc2cnc(N[C@H]3CCc4ccc(-c5ccccc5)cc43)c(=O)n21 [Compound 257] | < 500 nM | < 500 nM | < 50 nM
11 | Cc1cc(C)cc(CNc2ncc3n(c2=O)[C@H](C(=O)NCc2ccnc(N)c2)CC3)c1 [Compound 88, (S)-N-((2-aminopyridin-4-yl)methyl)-3-((3,5-dimethylbenzyl)amino)-4-oxo-4,6,7,8-tetrahydropyrrolo[1,2-a]pyrazine-6-carboxamide] | < 500 nM | < 500 nM | 50 to 500 nM
